The record followed here is patent US20230000876A1, “TREATING CANCERS WITH A CYCLIN-DEPENDENT KINASE INHIBITOR” (Nuvation Bio Inc., priority 2021, published 2023).

Test [1] concerns tumor fragments from a mCRPC patient. The test can be described thus: Enzalutamide-resistant patient-derived xenograft prostate model (ST2347 PDX). In kind it is in vivo, male Balb/c nude mice. The conditions noted are these: 30 mg/kg oral QD. In general terms: In xenograft studies the graft and the host belong to different species.
A further test relates to VCap prostate cancer. Nature of the test: Non-castrated VCap prostate cancer model. It is filed as in vivo, male CB17/Scid mice. The conditions noted are these: Group 2: Enzalutamide 20 mg/kg p.o. QD * 26 days. The protocol:
Compound (I), enzalutamide, and abiraterone were tested in non-castrated VCap prostate cancer model in male CB17/Scid mice.
All treatment groups reduced mean tumor volume.

A further test concerns 22Rv1 tumors. Nature of the test: 22Rv1 prostate tumor model (Example 3). In kind it is in vivo, male Balb/c nude mice. The conditions noted are these: for Tumor volume (mean ± SEM): 30 mg/kg PO QD. The protocol: The in vivo anti-tumor efficacy of the compound of formula (I) either alone or in combination with enzalutamide prostate tumor model on male Balb/c nude mice was evaluated. The cell line is derived from a xenograft that was serially propagated in mice after castration—induced regression and relapse of the parental, androgen-dependent CWR22 xenograft.
In the study, the compound of formula (I) was dosed orally (po) once daily (QD) and enzalutamide, when administered, was dosed orally once daily for 25 days, as shown in Table 8.
The 22Rv1 tumor cells were maintained in vitro in RPMI1640 medium supplemented with 10% heat inactivated fetal bovine serum at 37° C. in an atmosphere of 5% CO2 in air. The tumor cells were routinely subcultured twice weekly. The cells growing in an exponential growth phase were harvested and counted for tumor inoculation.
Each mouse was inoculated subcutaneously at the right flank with 22Rv1 tumor cells (5*10^6) with 50% Matrigel for tumor development. The treatments were started on day 7 after tumor inoculation when the average tumor volume reached 94 mm^3. A total of 48 mice were selected and assigned into 6 groups. The testing articles were administrated to the mice according to Table 8.
The major endpoint was to see if the tumor growth could be delayed or mice could be cured. Tumor size was measured twice weekly in two dimensions using a caliper, and the volume was expressed in mm^3 using the formula: V=0.5 a×b^2 where a and b are the long and short diameters of the tumor, respectively. The tumor sizes are then used for the calculation of T/C and TGI values.
The T/C value (in percent) is an indication of antitumor effectiveness; T and C are the mean volume of the treated and control groups, respectively, on a given day.
TGI was calculated for each group using the formula: TGI (%)=[1−(Ti−T0)/(Vi−V0)]×100; Ti is the average tumor volume of a treatment group on PG-Di, T0 is the average tumor volume of the treatment group on the day of treatment start, Vi is the average tumor volume of the vehicle control group on the same day with Ti, and V0 is the average tumor volume of the vehicle group on the day of treatment start.
All groups were taken down on PG-D24 and PG-D25 when the average tumor size of vehicle group reached 2305 mm^3.
Summary statistics, including mean and the standard error of the mean (SEM), are provided for the tumor volume of each group at each time point. For comparison among groups, a one-way ANOVA was performed. All the analysis were conducted using GraphPad Prism software. p<0.05 was considered to be statistically significant.

[2] abbreviates: enzalutamide 30 mg/kg QD, PG-D24.

As usually defined, the T/C is the result in the treated group divided by that in the control group, in per cent. One may read the TGI as how far tumour growth fell short of that in controls. As to `CNC(=O)c1ccc(N2C(=S)N(c3ccc(C#N)c(C(F)(F)F)c3)C(=O)C2(C)C)cc1F` [Enzalutamide, reference compound], the “Antitumor activity over the course of the treatment” value in test [1] was “minimal effect”. Besides, the “Tumor volume (mean ± SEM)” value in the test with VCap prostate cancer (Day 0) was 171.8 ± 6.1 mm^3; in the test with VCap prostate cancer (Day 4) it was 287.4 ± 17^ mm^3; in the test with VCap prostate cancer (Day 7), 352.2 ± 28.8 mm^3; with VCap prostate cancer (Day 11), 542.8 ± 50.7 mm^3; with VCap prostate cancer (Day 14) it was 662.7 ± 51.7 mm^3; in the test on VCap prostate cancer (Day 18), 761.9 ± 60.9 mm^3. Besides, the “Tumor volume (mean ± SEM)” value in the test on VCap prostate cancer (Day 21) is given as 891.2 ± 82.8 mm^3; with VCap prostate cancer (Day 25), 1005.9 ± 71.4 mm^3; in the test on 22Rv1 tumors (day 0) it was 94 ± 4 mm^3; in the test with 22Rv1 tumors (day 3) it was 177 ± 13 mm^3; in the test with 22Rv1 tumors (day 7), 345 ± 23 mm^3; in the test on 22Rv1 tumors (day 10), 507 ± 53 mm^3. The “Tumor volume (mean ± SEM)” value in the test on 22Rv1 tumors (day 14) is on record as 825 ± 65 mm^3; in the test on 22Rv1 tumors (day 17), 1115 ± 65 mm^3; in the test on 22Rv1 tumors (day 21) it was 1531 ± 143 mm^3; in the test with 22Rv1 tumors (day 24), 1814 ± 186 mm^3. The T/C in the test with 22Rv1 tumors (setting [2]) is reported as 78.69%. Besides, in the test on 22Rv1 tumors (setting [2]), the TGI was found to be 22.17%.
